Measurements: US8895599B2, “Lipoprotein lipase-activating compositions comprising benzene derivates” (Otsuka Pharmaceutical Factory, Inc., priority 2008, dated 2014)

Columns and labels:
human LPL mRNA = experiment: Test for increase in LPL mRNA expression (luciferase assay, HTB-92/p387/p383 cell line); type: cell-based; settings: 120 h, HTB-92/p387/p383 cells, 5 days; for maximal fold induction: Max. Ind. Value=Lt/Lc, maximum luciferase activity over control; for EC50: concentration that increases LPL mRNA expression over the control by 50%
Source text: Pharmacological Test 1 Test for Increase in LPL mRNA Expression
A luciferase assay was employed to simply and quickly detect an increase in human LPL mRNA. The principle of the assay is as follows:
Luciferase emits light when reacted with luciferine (substrate). The expression of LPL mRNA is controlled by 5′-UTR and 3′-UTR (promoter regions) of the LPL gene. By introducing the promoter regions of the LPL gene into a commercially available plasmid (for example, that produced by Clonetics Corp.) to produce a plasmid (reporter plasmid) that stably expresses luciferase in human cells, such a plasmid expresses luciferase only under conditions in which LPL mRNA can increase. Therefore, when the substrate is introduced to the expression system and the amount of luciferase expression (luciferase activity) is quantified as the extent of chemiluminescence, the amount of LPL mRNA expression can be estimated.
The test herein was performed as follows: Using a plasmid for the luciferase assay manufactured by Clontech, wherein human LPL 5′-UTR (Enerback, S., et al., Mol. Cell. Biol. 12 (10) (1992): 4622-4633) and 3′-UTR (Wion, K. L., et al., Science 235 (1987): 4796, 1638-1641) had been inserted, human-derived liposarcoma cell line SW872 (ATCC Accession No. HTB-92) was transformed to prepare an HTB-92/p387/p383 cell line, which stably expresses luciferase.
This HTB-92/p387/p383 cell line was introduced into a 225 cm^2 culture flask furnished with a culture medium and cultured at 37° C. in the absence of CO2 until reaching confluence. Leibovitz's L-15 culture medium (containing 10% FBS, 1% GlutaMaxII, 10 μg/ml streptomycin, 1 μg/ml puromycin, 250 μg/ml hygromycin B) was used as the culture medium. After reaching confluence, the cells were collected, plated on 384-well plates to have 20000 cells/well, and cultured with 50 μl/well of the culture medium under the same conditions as above (37° C., absence of CO2). After 3 days of culturing, the culture medium was replaced by 50 μl/well phenol-red-free DMEM (containing 10% FBS, 1% GlutaMax, 10 U/ml penicillin, 10 μg/ml streptomycin, 1 μg/ml puromycin, 250 μg/ml hygromycin, 1 μM dexamethasone, 0.5 μM IBMX; differentiation medium), and the cells were cultured for 5 more days at 37° C. in the presence of CO2 to differentiate.
Furthermore, the culture medium was replaced by a 50 μl/well medium containing a compound of the invention (compound prepared in an Example) as a test substance wherein the compound had been conditioned with DMSO to a specific concentration selected from 10^−4 M to 3×10^−10M. The cells were cultured for 5 days at 37° C. in the presence of CO2.
After 5 days of culturing, a luciferase substrate solution (manufactured by Promega Corporation) was introduced to each well in an amount of 30 μl/well. The cells were left to stand 10 minutes at room temperature, and luciferase activities were measured by a luminometer (a microplate scintilltion counter; The Wallac MicroBeta Trilux, manufactured by Perkin Elmer, Inc.).
Cells that had been cultured and differentiated in a differentiation medium prepared by adding 0.1% DMSO to the above-mentioned DMEM medium (differentiation medium) not containing phenol red were used as a control (i.e., cultured and differentiated for 5 days and then stimulated for 5 days). The luciferase activity of these control cells were measured as above. The EC50 value (the concentration of test substance that can increase the amount of LPL mRNA expression over the control by 50%, unit: M) was calculated based on the straight line obtained by plotting the results of the tests performed using the test substances at varying concentrations. The maximum induction (Max. Ind. values) was calculated according to the following equation: Max. Ind. Value=Lt/Lc wherein Lt represents the maximum luciferase activity occurred in response to test substance stimulation; and Lc represents the value indicating the luciferase activity of the control.

[1] = Therapeutical effect on olive oil-induced triglyceride hyperlipidemia models; type: in vivo; settings: once a day for one week, SD rats, 2 h after olive oil
Experimental: Test of Therapeutical Effect on Olive Oil-Induced Triglyceride Hyperlipidemia Models
To conduct this test, 6-week-old SD rats (purchased from Charles River Japan) were used.
According to the body weight of the test rats when they were 5 weeks old, the test rats were divided into test groups and a control group with 6 rats per group.
A predetermined amount of each compound prepared in the Examples was measured and placed in an agate mortar. While 5% aqueous gum arabic solution was gradually introduced to the mortar, the compound was uniformly ground and suspended. Test samples were prepared by further adding 5% aqueous gum arabic solution gradually. Subsequently, these test samples were subjected to ultrasonic washing for 10 minutes to homogenize. Test samples were prepared as and when necessary.
The rats of the test groups were orally administered with the compounds of the invention such that rats received the compounds in an amount of 10, 30, or 100 mg/kg. The compounds of the invention were formulated as 5% gum arabic suspensions as described above.
The rats of the control group were orally administered with 5% aqueous gum arabic solution (not containing the compounds of the invention) in an amount of 5 ml/kg body weight. Administration was conducted once a day continuously for one week at a specific time of day after the rats reached 6 weeks of age. This test was performed under non-fasting conditions (rats had free access to feed and water), and the rats were fasted after the final administration of the compounds or 5% aqueous gum arabic solution.
Two hours after the final administration, olive oil was orally administered to the rats from both groups in an amount of 3 ml/kg body weight.
Two hours after the olive oil administration, blood was collected from the abdominal aorta of the rats of the respective groups using a heparinized syringe. The plasma was centrifugally separated from the blood at a temperature of 4° C., and the triglyceride level of the plasma was measured. A Hitachi 7170 automatic analyzer was used as the measuring instrument. Using the values measured from the test groups and control group, the decrease (%) in plasma triglyceride level was calculated according to the following equation: Decrease (%) in plasma triglyceride concentration=(1−E/C)×100 wherein E represents the average plasma triglyceride level in each test group; and C represents the average plasma triglyceride level in the control group.

LPL = experiment: Test for LPL activity-increasing effect in normal rats (skeletal muscle LPL activity); type: in vivo; settings: every day for 1 week, SD rats, soleus muscle, 4 h after administration
Experimental: Test for LPL Activity-Increasing Effect in Normal Rats
6-week-old SD rats (purchased from Charles River Japan) were used as subjects. The rats were divided into groups according to body weight at the age of 5 weeks. The rats in each test group were orally administered with a 5% gum arabic suspension in an amount of 5 ml/kg of body weight, the suspension containing the test compound of the invention in such an amount that the dose of the compound of the invention became 30 mg/kg of body weight in one group and 100 mg/kg of body weight in another group. The rats in a control group were orally administered with a 5% gum arabic suspension (not containing the test compound of the invention) in an amount of 5 ml/kg of body weight. Each sample suspension was orally administered every day at a specific time of day for 1 week starting when the rats reached the age of 6 weeks.
Four hours after the administration of the sample suspension, skeletal muscle tissues of the rats were collected, then freeze-clamped and stored under liquid nitrogen. LPL activity in the skeletal muscle tissues was measured by the following method.
The soleus muscle was homogenized in a chilled solution of 0.05 mol/L NH4OH—NH4Cl buffer (pH 8.5) containing 0.5 U/mL heparin at 1 mL/100 mg of tissue wet weight. After standing on ice for 60 min with vigorous mixing at intervals of 15 min, the homogenate was centrifuged at 3000 rpm and 4° C. for 10 min and the supernatant was separated.
The substrate solution was prepared by mixing 2 μCi of glycerol tri[1-^14C]oleate, 0.133 g of unlabeled triolein, 0.9 mL of 1% Triton X-100, and 0.9 mL of 4% bovine serum albumin. in 0.2 mol/L Tris-HCl buffer (pH 8.6) and 10.2 mL of 0.2 mol/L Tris-HCl buffer (pH 8.6). The mixture was emulsified by sonication on ice for 3 min.
In a glass test tube, 0.1 mL of the tissue extract, 0.05 mL of heat-inactivated rat serum and 0.15 mL of 4% bovine serum albumin in 0.2 mol/L Tris-HCl buffer (pH 7.4) were mixed. Enzyme reaction was started by adding 0.2 mL of the substrate solution and was carried out for 30 min. at 37° C.
The reaction was stopped by addition of 2 mL of 1.5 mol/L H2SO4/2-propanol (1:40, v/v), and 1 mL of distilled water and 3 mL of hexane were added into the test tube. After vigorously shaking for 10 min. at room temperature, the test tube was centrifuged for 10 min. at 3000 rpm.
The upper layer (3.5 mL) was collected in a new test tube and mixed with 1 mL of 0.1 mol/L KOH.
The test tube was vigorously shaken for 10 min. at room temperature and then centrifuged for 10 min. at 3000 rpm.
After removing the upper layer, 1 mL of the lower layer (water phase) was transferred into a vial for counting, neutralized with 50 μL of 1.3 mol/L HCl and mixed with 4 mL of scintillator. The radioactivity was measured using a liquid scintillation counter.
The LPL activity increase (%) was calculated from the measured values of LPL activity in the control group and test groups according to the following formula: LPL activity increase (%)=(Test group average value)/(Control group average value)×100−100

Row | Compound | melting point | EC50 (human LPL mRNA) | maximal fold induction (human LPL mRNA) | Decrease in plasma triglyceride level (%) ([1]; 10 mg/kg oral) | Decrease in plasma triglyceride level (%) ([1]; 30 mg/kg oral) | Decrease in plasma triglyceride level (%) ([1]; 100 mg/kg oral) | Increase of skeletal muscle LPL activity compared to control (%) (LPL; 30 mg/kg oral) | Increase of skeletal muscle LPL activity compared to control (%) (LPL; 100 mg/kg oral)
1 | COc1cc(-c2cn3ccsc3n2)ccc1OCc1ccc(Cl)cc1 [Example 23, 6-[4-(4-chlorobenzyloxy)-3-methoxyphenyl]imidazo[2,1-b]thiazole] | 126 to 128 °C |  |  | 66% | 78% | 77% | 18% | 15%
2 | COc1cc(-c2cn3ccccc3n2)ccc1OCc1ccc(C#N)cc1 [Example 30] | 175 to 177 °C | 6.7 µM | 1.9 |  |  |  | 22% | 31%
3 | COc1cc(-c2cn3cccc(OCc4ccccc4)c3n2)ccc1OCc1ccc(Br)cc1 [Example 85] | 168 to 169 °C |  |  |  |  |  | 9% | 36%
4 | c1ccc(-c2cc3cc(-c4cn5ccccc5n4)ccc3o2)cc1 [Example 103] | 239.5 to 241 °C | 7.4 µM | 1.9 |  |  |  |  | 
5 | COc1cc(-c2cn3ccccc3n2)ccc1Oc1ccc(Cl)cc1 [Example 114] | 148 to 149 °C | 7.2 µM | 1.5 |  |  |  |  | 
6 | COc1cc(-c2cnc3ccccn23)ccc1O[C@H](C)c1ccccc1 [Example 132] |  | 6.2 µM | 1.7 |  |  |  |  | 
7 | COc1cc(-c2cn3ccccc3n2)ccc1O[C@@H](C)c1ccccc1 [Example 134] | 149 to 150 °C | 6.4 µM | 1.7 |  |  |  |  | 
8 | COc1cc(-c2cnc3ccccn23)ccc1OC(C)c1ccccc1 (stereo not drawn) [Example 135] | 113 to 113.5 °C | 5.2 µM | 1.8 |  |  |  |  | 
9 | CCO[PH](=O)OCc1ccc(C(=O)Nc2ccc(Br)cc2C#N)cc1 (stereo not drawn) [ethyl 4-[(4-bromo-2-cyanophenyl)carbamoyl]benzyl phosphonate, reference compound] |  |  | ~1.2 |  |  |  |  | 

Continued by falling EC50 (human LPL mRNA), values first:

Row | melting point | EC50 (human LPL mRNA) | Compound | maximal fold induction (human LPL mRNA) | Decrease in plasma triglyceride level (%) ([1]; 10 mg/kg oral) | Decrease in plasma triglyceride level (%) ([1]; 30 mg/kg oral) | Decrease in plasma triglyceride level (%) ([1]; 100 mg/kg oral) | Increase of skeletal muscle LPL activity compared to control (%) (LPL; 30 mg/kg oral) | Increase of skeletal muscle LPL activity compared to control (%) (LPL; 100 mg/kg oral)
10 | 117 to 118 °C | 3.6 µM | COc1cc(-c2cn3ccccc3n2)ccc1OCc1cccc(F)c1 [Example 5] | 1.6 |  |  |  |  | 
11 |  | 3.3 µM | COc1cc(-c2cnc3ccccn23)ccc1OCc1ccc(Cl)c(Cl)c1 [Example 117] | 2.2 |  |  |  |  | 
12 |  | 3 µM | COc1cc(-c2cnc3ccccn23)ccc1OCc1ccc(Cl)cc1 [Example 109] | 1.5 |  |  |  |  | 
13 | 115 to 117 °C | 2 µM | COc1cc(-c2cn3ccccc3n2)ccc1OCc1ccccc1F [Example 4] | 1.7 |  |  |  |  | 
14 | 95 to 97 °C | 2 µM | COc1cc(-c2cn3ccccc3n2)ccc1Oc1ccccc1 [Example 138] | 2 |  |  |  |  | 
